Experiments:
[1] = tested on: TUNEL-positive cells in frontal cortex; assay: TUNEL staining of brain after chronic alcohol exposure; type: in vivo, C57BL/6J mice; details: WT mice; treatment for 14 days; sulfasalazine 15 mg/kg/day i.p., sorafenib 30 mg/kg i.p., regorafenib 30 mg/kg i.p.; compared to vehicle; FIG. 4B
Procedure: (§1) The concentration of alcohol was increased every fourteenth day. […] Intakes were recorded every day.

wild type cortical cells = assay: Annexin V apoptosis assay in primary cortical cells exposed to alcohol or cocaine; type: cell-based, C57BL/6J mouse; details: alcohol or cocaine incubation, 18 hours; sulfasalazine 500 μM, sorafenib 10 μM, regorafenib 10 μM; compared to vehicle (DMSO); FIG. 6
Procedure: Data are means±SD (n=3). *P<0.001 compared to vehicle group.
Primary cortical cells were prepared from cerebral cortices of wild-type C57BL/6J or xCT homozygous knockout (xCT KO) mouse embryos in embryonic day 17 as previously described in Shyu, W. C., et al., Secretoneurin promotes neuroprotection and neuronal plasticity via the Jak2/Stat3 pathway in murine models of stroke. J Clin Invest, 2008. 118(1): p. 133-48.
Annexin V staining was performed to determine cell apoptosis using the Annexin V-FITC Apoptosis Detection Kit (Sigma-Aldrich) for 10 minutes at room temperature according to the manufacturer's instructions, and then flow cytometric analysis was performed.

alcohol-dependent mice = assay: Free-choice two-bottle drinking after chronic alcohol exposure; type: in vivo, C57BL/6J mice; details: WT mice after chronic alcohol exposure; treatment for 7 days; sulfasalazine 15 mg/kg/day i.p., sorafenib 30 mg/kg i.p., regorafenib 30 mg/kg i.p.; compared to control vehicle (DMSO); FIG. 2B
Procedure: Data are means±SD (n=6-8). *P<0.0001 compared to water. ^#P<0.0001 compared to WT mice or vehicle treatment.
as §1

[2] = tested on: cocaine-dependent WT mice; assay: Free-choice two-bottle drinking after chronic cocaine exposure; type: in vivo, C57BL/6J mice; details: WT mice after chronic cocaine exposure (15 mg/kg i.p., 7 days); sulfasalazine 15 mg/kg/day i.p. for 6 days during free-choice drinking; compared to vehicle

Row | Structure (SMILES) | chronic alcohol exposure-induced apoptosis (TUNEL-positive cells) in brain [1] | substance-induced apoptosis in cortical cells (wild type cortical cells) | daily alcohol consumption during free-choice drinking (alcohol-dependent mice) | cocaine preference and craving behaviours [2]
1 | CNC(=O)c1cc(Oc2ccc(NC(=O)Nc3ccc(Cl)c(C(F)(F)F)c3)cc2)ccn1 [sorafenib] | inhibited apoptosis | significantly inhibited substance-induced apoptosis | significantly attenuated the daily alcohol consumption | 
2 | CNC(=O)c1cc(Oc2ccc(NC(=O)Nc3ccc(Cl)c(C(F)(F)F)c3)c(F)c2)ccn1 [regorafenib] | inhibited apoptosis | significantly inhibited substance-induced apoptosis | significantly attenuated the daily alcohol consumption | 
3 | O=C(O)c1cc(/N=N/c2ccc(S(=O)(=O)Nc3ccccn3)cc2)ccc1O [sulfasalazine] |  | significantly inhibited substance-induced apoptosis | significantly attenuated the daily alcohol consumption | fully inhibited cocaine preference and craving behaviours

Reference: US10512637B2, “Use of inhibitor of cystine-glutamate transporter” (CHINA MEDICAL UNIVERSITY, priority 2015, dated 2019)
